Test [1] deals with normal keratinocyte (HaCaT) cells. Briefly: cell viability screen in noncancerous HaCaT cells. The test is classed as cell-based. From the text: FIGS. 14A-14C depict cell viability screen of PPA24, PPA27, iHAP1, and NSC49L in normal keratinocyte (HaCaT) (FIG. 14A) and epithelial (FHC) (FIG. 14B) cells, where the compounds were able to showcase selectivity to cancerous cells vs. noncancerous cells. FIG. 14C depicts IC50 concentrations of the compounds in the cells. Analyses were done using GraphPad Prism 7.0 Software.
The compounds PPA24, PPA27, iHAP1, and NSC49L were screened in noncancerous cell lines to observe the selectivity these compounds have towards cancerous cells by assessing the differences in IC50 concentrations.

For a further test, the target named is PP2ACα (Homo sapiens, UniProt P67775). The test can be described thus: surface plasmon resonance (SPR) binding to catalytic subunit PP2ACα. The following applies: no KD could be calculated. From the text: FIGS. 12A-12E depict surface plasmon resonance (SPR) analysis of the binding of PPA24, PPA27, and NSC49L to catalytic subunit, PP2ACα. FIG. 12A depicts surface plasmon resonance (SPR) studies of PPA24 binding to PP2ACα. FIG. 12B depicts surface plasmon resonance (SPR) studies of PPA27 binding to PP2ACα. FIG. 12C depicts the dissociation constant (KD) of PPA24 binding to PP2ACα. FIG. 12D depicts the dissociation constant (KD) of PPA27 binding to PP2ACα. FIG. 12E depicts surface plasmon resonance (SPR) studies of 100 μM of NSC49L binding to PP2ACα.
PP2ACα, sequence (P67775 whole entry): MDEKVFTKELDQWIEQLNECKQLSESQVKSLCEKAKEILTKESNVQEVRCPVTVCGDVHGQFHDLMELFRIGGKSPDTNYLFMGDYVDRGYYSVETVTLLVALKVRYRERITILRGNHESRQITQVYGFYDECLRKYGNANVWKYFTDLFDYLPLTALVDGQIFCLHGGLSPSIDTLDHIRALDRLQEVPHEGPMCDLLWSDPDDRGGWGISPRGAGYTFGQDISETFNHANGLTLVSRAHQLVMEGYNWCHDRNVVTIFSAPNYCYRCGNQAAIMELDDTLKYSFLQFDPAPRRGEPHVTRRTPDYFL
Thus, the binding affinity can be in the order of PPA24>PPA27>NSC49L>iHAP1.

SMILES strings stand for the structures.

As for `COc1ccc(C(=O)N2c3ccccc3Sc3ccc(Cl)cc32)cc1` [iHAP1], the “selectivity: cell viability in HaCaT cells versus CRC cells” value in test [1] is listed as “do not appear to have a significant difference”. Besides, the “SPR binding signal to PP2ACα” value on PP2ACα is “did not show a clear signal even at high concentrations”.

`ClC/C=C/C[N+]12CN3CN(CN(C3)C1)C2.[Cl-]` [NSC49L]: the “selectivity: cell viability in HaCaT cells versus CRC cells” value in test [1] is reported as “some selectivity towards cancerous cells”. For the same compound, the “SPR binding signal to PP2ACα” value on PP2ACα is recorded as “only had a binding signal at 100 μM”.

Source of the values: patent US20260132141A1, “PROTEIN PHOSPHATASE 2A ACTIVATORS” (University of Florida Research Foundation, Incorporated, priority 2022, published 2026).
